Assay results from patent US7091033B2, “Array of toxicologically relevant canine genes and uses thereof” (Phase-1 Molecular Toxicology, Inc., priority 2000, dated 2006).

How the values were obtained:
[1] = tested on: canine genes in a canine array (Canine kidney); assay: Canine array fold induction of canine genes in kidney of dogs dosed with an agent (Table 11); format: in vivo; settings: Canine kidney, 0.8 mg/kg, 2 days
Source text: (§1) Table 11 depicts the fold induction for canine genes in a canine array.

[2] = tested on: canine genes of the array; assay: Canine array fold induction of canine genes in kidney of canines dosed with test agents (Table 11); format: in vivo; settings: dog, 2 mg/kg, 10189, Canine kidney, 2 mg/kg, 2 days, gene = c0 of the row
Source text: as §1

[3] = tested on: canine genes of the array; assay: Canine array fold induction of canine genes in liver of canines dosed with test agents (Table 11); format: in vivo; settings: dog, 2 mg/kg, 10319, Canine liver, 2 mg/kg, 3 day, gene = c0 of the row
Source text: as §1

IL-8 gene expression = assay: Measurement of IL-8 dose response: IL-8 gene expression (fold induction) in MDCK cells dosed with cadmium chloride, cDNA probes on canine array; format: cell-based; settings: MDCK cells dosed for 24 hrs at 0.1 μM, 1 μM, and 10 μM; FIG. 3
Source text: Dosage response is an important concept in toxicology. Depending on the dosage of a toxin or agent which may be toxic, the gene expression profile of a particular gene may vary. One way that this can be envisioned is by observing the changes in fold induction of a particular gene when analyzed using the arrays of this invention. The dosages determined in dose response curves may be useful in determining “threshold” levels of toxicity, for example for FDA approval. Example 15 and FIG. 3 illustrate this embodiment. Methods of analyzing gene expression and how to correlate gene expression data are provided herein.
Fluorescence-labeled first strand cDNA probe was made from total or mRNA by first isolating RNA from control and treated cells, disclosed supra. […]
The volume of each sample that would contain 20 μg of total RNA (or 2 μg of mRNA) was calculated. The amount of DEPC water needed to bring the total volume of each RNA sample to 14 μl was also calculated. […]
Then the appropriate volume of each RNA sample was added to the labeled PCR tube. […] The tubes were kept on ice until all samples are ready for the next step. It is preferable for the tubes to kept on ice until the next step is ready to proceed. The samples were incubated in a PCR machine for 10 minutes at 70° C. followed by 4° C. incubation period until the sample tubes were ready to be retrieved. […]

[4] = tested on: canine genes differentially expressed in organs (liver, spleen, kidney, testes, heart, thymus); assay: Transcriptome profiling / differential display of tissues from canines exposed to an agent versus vehicle (reverse transcription, PCR, reamplification of bands, sequencing); format: in vivo

C[C@@H]1[C@H](O)[C@@H](C)/C=C/C=C/C=C/C=C/C=C/C=C/C=C/[C@H](O[C@@H]2O[C@H](C)[C@@H](O)[C@H](N)[C@@H]2O)C[C@@H]2O[C@](O)(C[C@@H](O)C[C@@H](O)[C@H](O)CC[C@@H](O)C[C@@H](O)CC(=O)O[C@H]1C)C[C@H](O)[C@H]2C(=O)O [Amphoteracin B]
BRCA1 fold induction [1]: 1.1
Beta-glucuronidase fold induction [1]: 1.3
CD40 ligand fold induction [1]: 1.4
Catalase fold induction [1]: 1.1
Caveolin-1 fold induction [1]: 1.0
Caveolin-2 fold induction [1]: 1.0
Cytochrome P450 2B fold induction [1]: 1.1
Cytochrome P450 2C21 fold induction [1]: 1.2
Cytochrome P450 2D fold induction [1]: 1.6
GRP94 fold induction [1]: 1.9
Glucose transporter fold induction [1]: 1.2
Glucose-6-phosphatase fold induction [1]: 1.3
Glucose-regulated protein 94 #2 fold induction [1]: 1.1
Glutathione S-transferase alpha subunit fold induction [1]: 1.1
Interleukin-8 fold induction [1]: 1.2
Interleukin-10 fold induction [1]: 1.1
Keratinocyte growth factor fold induction [1]: 1.1
Mek5 fold induction [1]: 1.1
Metallothionein 1 fold induction [1]: 2.1
Multidrug resistant protein-1 fold induction [1]: 1.2
Phase-1 CCT-11 fold induction [1]: 1.3
Phase-1 CCT-61 fold induction [1]: 1.1
Phase-1 CCT-72 fold induction [1]: 1.1
Phase-1 CCT-74 fold induction [1]: 1.1
Phase-1 CCT-76 fold induction [1]: 1.0
Phase-1 CCT-78 fold induction [1]: 1.0
Phase-1 CCT-80 fold induction [1]: 1.9
Phase-1 CCT-81 fold induction [1]: 1.0
Phase-1 CCT-82 fold induction [1]: 1.1
Phase-1 CCT-83 fold induction [1]: 1.1
Phase-1 CCT-87 fold induction [1]: 1.1
Phase-1 CCT-89 fold induction [1]: 1.1
Phase-1 CCT-91 fold induction [1]: 1.2
Phase-1 CCT-93 fold induction [1]: 1.0
Phase-1 CCT-97 fold induction [1]: 1.0
Phenol sulfotransferase fold induction [1]: 1.0
Prostaglandin D synthase fold induction [1]: 1.3
Rab2 fold induction [1]: 1.8
Rab5 fold induction [1]: 1.1
Rab7 fold induction [1]: 2.2
SHB (Src homology 2 protein) fold induction [1]: 1.1
TFCOUP-related (probable steroid hormone receptor) fold induction [1]: 1.1
Tissue inhibitor of metalloproteinases-1 fold induction [1]: 2.5
Tumor necrosis factor-alpha fold induction [1]: 2.0
UV excision repair protein RAD 23 (XP-C) fold induction [1]: 1.0
Ubiquitin fold induction [1]: 1.0
Vascular cell adhesion molecule 1 (VCAM-1) fold induction [1]: 3.5
ZAP36/annexin IV fold induction [1]: 1.4
c-erb B-2 fold induction [1]: 1.3
p38 MAPK fold induction [1]: 1.2
p53 fold induction [1]: 1.4

C[C@@H]1[C@H](O)[C@@H](C)/C=C/C=C/C=C/C=C/C=C/C=C/C=C/[C@H](O[C@@H]2O[C@H](C)[C@@H](O)[C@H](N)[C@@H]2O)C[C@@H]2O[C@](O)(C[C@@H](O)C[C@@H](O)[C@H](O)CC[C@@H](O)C[C@@H](O)CC(=O)O[C@H]1C)C[C@H](O)[C@H]2C(=O)O [Amphoteracin-B]
BR-cadherin fold induction [1]: 1.0
Beta-glucuronidase fold induction [1]: 1.1
CD40 ligand fold induction [1]: 2.2
Catalase fold induction [1]: 1.6
Caveolin-1 fold induction [1]: 1.2
Caveolin-2 fold induction [1]: 2.1
Cytochrome P450 2B fold induction [1]: 1.1
Cytochrome P450 2C41 fold induction [1]: 1.2
Cytochrome P450 2D fold induction [1]: 1.6
Cytochrome P450 3A fold induction [1]: 1.2
GRP94 fold induction [1]: 1.2
Glucose transporter fold induction [1]: 1.3
Glucose-regulated protein 94 #1 fold induction [1]: 1.2
Glucose-regulated protein 94 #2 fold induction [1]: 1.1
Glutathione S-transferase alpha subunit fold induction [1]: 1.8
Interleukin-8 fold induction [1]: 1.2
Interleukin-10 fold induction [1]: 5.9
Keratinocyte growth factor fold induction [1]: 1.6
Mek5 fold induction [1]: 1.2
Metallothionein 1 fold induction [1]: 3.1
Paraoxonase2 (PON2) fold induction [1]: 2.1
Phase-1 CCT-11 fold induction [1]: 1.1
Phase-1 CCT-59 fold induction [1]: 1.1
Phase-1 CCT-60 fold induction [1]: 1.3
Phase-1 CCT-63 fold induction [1]: 1.1
Phase-1 CCT-65 fold induction [1]: 1.1
Phase-1 CCT-66 fold induction [1]: 1.1
Phase-1 CCT-68 fold induction [1]: 1.1
Phase-1 CCT-72 fold induction [1]: 1.1
Phase-1 CCT-73 fold induction [1]: 1.1
Phase-1 CCT-74 fold induction [1]: 1.1
Phase-1 CCT-78 fold induction [1]: 1.1
Phase-1 CCT-84 fold induction [1]: 1.5
Phase-1 CCT-87 fold induction [1]: 1.0
Phase-1 CCT-91 fold induction [1]: 1.5
Phase-1 CCT-92 fold induction [1]: 1.4
Phase-1 CCT-94 fold induction [1]: 1.1
Phenol sulfotransferase fold induction [1]: 5.3
Prostaglandin D synthase fold induction [1]: 1.4
Rab2 fold induction [1]: 1.1
Rab5 fold induction [1]: 1.1
Rab7 fold induction [1]: 1.1
SHB (Src homology 2 protein) fold induction [1]: 1.2
Tumor necrosis factor-alpha fold induction [1]: 3.5
UV excision repair protein RAD 23 (XP-C) fold induction [1]: 1.1
Ubiquitin fold induction [1]: 1.3
ZAP36/annexin IV fold induction [1]: 1.1
c-erb B-2 fold induction [1]: 1.2
p53 fold induction [1]: 1.2

CN(Cc1cnc2nc(N)nc(N)c2n1)c1ccc(C(=O)N[C@@H](CCC(=O)O)C(=O)O)cc1 [Methotrexate]
fold induction at 2 days [2]: 1.1
fold induction at 3 days [3]: 1.1

[Cl][Cd][Cl] [cadmium chloride]
IL-8 gene expression, fold induction (IL-8 gene expression): fold induction varies with the dosage

COc1cc([C@@H]2c3cc4c(cc3[C@@H](O[C@@H]3O[C@@H]5CO[C@@H](C)O[C@H]5[C@H](O)[C@H]3O)[C@H]3COC(=O)[C@H]23)OCO4)cc(OC)c1O [etoposide]
Expression Pattern ([4]; Band # CTP3B, Homo Sapien N-myc dow BC003175, larger band of doublet): doublet-larger band is upregulated
Expression Pattern ([4]; Band # CTP27C, Homo sapiens CTCL turn AF177227): repressed with etoposide and aspirin
Expression Pattern ([4]; Band # CTP37A, Homo sapiens nuclear fax AF167569): repressed with etoposide
Expression Pattern ([4]; Band # CTP143B, No significant match): induced with etoposide and caffeine
Expression Pattern ([4]; Band # CTP150A, No significant match): repressed with etoposide
Expression Pattern ([4]; Band # CTP150C, Canis familiaris mitochon CFU96639): repressed with etoposide
Expression Pattern ([4]; Band # CTP156J, Human DNA sequence fn AL136120): induced with etoposide and caffeine
Expression Pattern ([4]; Band # CTP216A, Canis familiaris heat-shoc U19368): repressed with etoposide

N.N.[Cl][Pt+2][Cl] [transplatin]
Expression Pattern ([4]; Band # CTP60B, Homo sapiens RNA bindii XM_016120): repressed with carbo and trans platin
Expression Pattern ([4]; Band # CTP65A, Pig mRNA for endoplasm X16951): repressed with carbo and trans platin
Expression Pattern ([4]; Band # CTP74A, No significant match): repressed with carbo, trans and cisplatin
Expression Pattern ([4]; Band # CTP75C, No significant match): repressed with carbo, trans and cisplatin
Expression Pattern ([4]; Band # CTP85D, Homo sapiens Rho-assoc XM_008814): repressed with carbo, trans and cisplatin
Expression Pattern ([4]; Band # CTP122I, Human mRNA for KIAA0(D26067)): repressed with carbo and transplatin
Expression Pattern ([4]; Band # CTP129A, Homo sapiens, Similar to BC007583): induced with transplatin
Expression Pattern ([4]; Band # CTP185C, No significant match): induced with carbo and trans platin
Expression Pattern ([4]; Band # CTP206A, Homo sapiens fatty acid c NM_013402): repressed with carbo and transplatin
Expression Pattern ([4]; Band # CTP208B, No significant match): induced with transplatin
Expression Pattern ([4]; dog, in vivo): repressed with carbo and trans platin
